Test results from US10351575B2, “Bicyclic urea, thiourea, guanidine and cyanoguanidine compounds useful for the treatment of pain” (Array BioPharma Inc., priority 2012, dated 2019).

Key:
Assay in all cases: KinaseProfiler off-target kinase profiling
Type in all cases: biochemical
Conditions in all cases: 10 μM, ATP near Km
SGK3 = SGK3 (Homo sapiens (Human), UniProt Q96BR1)
Summary of the method: (§1)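 Duplicate single-dose screen (10 μM). ATP concentration approximates Km for the individual kinase. Values = average POC.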

PKCiota = PKCiota (Homo sapiens (Human), UniProt P41743)
Summary of the method: as §1

MINK = MINK (Homo sapiens (Human), UniProt Q8N4C8)
Summary of the method: as §1

GSK3alpha = GSK3alpha (Homo sapiens (Human), UniProt P49840)
Sequence of GSK3alpha (P49840 whole entry): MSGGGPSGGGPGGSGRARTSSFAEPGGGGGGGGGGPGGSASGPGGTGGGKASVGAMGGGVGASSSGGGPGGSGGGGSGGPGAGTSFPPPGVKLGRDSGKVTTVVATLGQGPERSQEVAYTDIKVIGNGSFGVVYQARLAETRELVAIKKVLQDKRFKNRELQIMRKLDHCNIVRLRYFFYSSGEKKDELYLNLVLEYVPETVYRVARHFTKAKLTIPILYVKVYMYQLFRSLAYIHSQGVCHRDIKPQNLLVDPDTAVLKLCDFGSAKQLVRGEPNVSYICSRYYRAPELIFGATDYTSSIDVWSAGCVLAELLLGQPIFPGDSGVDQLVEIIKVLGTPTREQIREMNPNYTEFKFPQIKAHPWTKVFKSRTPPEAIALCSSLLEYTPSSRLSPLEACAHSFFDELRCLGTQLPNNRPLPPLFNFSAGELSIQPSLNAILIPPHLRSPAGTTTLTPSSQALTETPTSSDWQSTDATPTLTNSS
Summary of the method: as §1

PTK6 = PTK6 (Homo sapiens (Human), UniProt Q13882)
Summary of the method: as §1

GSK3beta = GSK3beta (Homo sapiens (Human), UniProt P49841)
Summary of the method: as §1

Rsk3 = Rsk3 (Homo sapiens (Human), UniProt Q15349)
Summary of the method: as §1

Rse = Rse (Homo sapiens (Human), UniProt Q06418)
Summary of the method: as §1

PrKX = PrKX (Homo sapiens (Human), UniProt P51817)
Sequence of PrKX (P51817 whole entry): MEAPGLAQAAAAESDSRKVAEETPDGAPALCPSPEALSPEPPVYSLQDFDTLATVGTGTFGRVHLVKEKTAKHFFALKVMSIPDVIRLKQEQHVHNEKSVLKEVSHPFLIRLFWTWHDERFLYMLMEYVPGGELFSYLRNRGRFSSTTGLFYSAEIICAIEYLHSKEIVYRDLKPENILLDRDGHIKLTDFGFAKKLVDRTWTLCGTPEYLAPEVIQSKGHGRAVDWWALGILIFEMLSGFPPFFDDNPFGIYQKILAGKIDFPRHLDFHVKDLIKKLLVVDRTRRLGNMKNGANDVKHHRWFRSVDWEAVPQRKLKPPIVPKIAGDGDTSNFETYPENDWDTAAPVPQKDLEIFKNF
Summary of the method: as §1

PAK4 = PAK4 (Homo sapiens (Human), UniProt O96013)
Sequence of PAK4 (O96013 whole entry): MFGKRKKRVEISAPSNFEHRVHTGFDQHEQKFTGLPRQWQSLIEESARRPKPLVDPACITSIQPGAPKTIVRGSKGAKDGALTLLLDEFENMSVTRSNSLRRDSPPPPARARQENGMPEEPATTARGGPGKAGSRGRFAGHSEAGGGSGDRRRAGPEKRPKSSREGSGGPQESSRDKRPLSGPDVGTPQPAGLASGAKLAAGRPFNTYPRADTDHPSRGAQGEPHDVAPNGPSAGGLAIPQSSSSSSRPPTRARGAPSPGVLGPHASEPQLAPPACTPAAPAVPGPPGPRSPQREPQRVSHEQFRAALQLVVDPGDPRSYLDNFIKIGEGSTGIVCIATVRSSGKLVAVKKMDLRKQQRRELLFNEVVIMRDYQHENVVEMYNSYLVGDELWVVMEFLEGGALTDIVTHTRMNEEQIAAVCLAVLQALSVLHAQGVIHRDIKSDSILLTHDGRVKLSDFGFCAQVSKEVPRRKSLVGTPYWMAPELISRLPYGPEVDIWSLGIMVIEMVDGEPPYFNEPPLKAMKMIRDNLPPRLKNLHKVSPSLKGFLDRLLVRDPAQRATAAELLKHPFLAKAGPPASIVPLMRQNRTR
Summary of the method: as §1

DYRK2 = DYRK2 (Homo sapiens (Human), UniProt Q92630)
Summary of the method: as §1

TrkB = TrkB (Homo sapiens (Human), UniProt Q16620)
Summary of the method: as §1

Hck = Hck (Homo sapiens (Human), UniProt P08631)
Summary of the method: as §1

PKCzeta = PKCzeta (Homo sapiens (Human), UniProt Q05513)
Sequence of PKCzeta (Q05513 whole entry): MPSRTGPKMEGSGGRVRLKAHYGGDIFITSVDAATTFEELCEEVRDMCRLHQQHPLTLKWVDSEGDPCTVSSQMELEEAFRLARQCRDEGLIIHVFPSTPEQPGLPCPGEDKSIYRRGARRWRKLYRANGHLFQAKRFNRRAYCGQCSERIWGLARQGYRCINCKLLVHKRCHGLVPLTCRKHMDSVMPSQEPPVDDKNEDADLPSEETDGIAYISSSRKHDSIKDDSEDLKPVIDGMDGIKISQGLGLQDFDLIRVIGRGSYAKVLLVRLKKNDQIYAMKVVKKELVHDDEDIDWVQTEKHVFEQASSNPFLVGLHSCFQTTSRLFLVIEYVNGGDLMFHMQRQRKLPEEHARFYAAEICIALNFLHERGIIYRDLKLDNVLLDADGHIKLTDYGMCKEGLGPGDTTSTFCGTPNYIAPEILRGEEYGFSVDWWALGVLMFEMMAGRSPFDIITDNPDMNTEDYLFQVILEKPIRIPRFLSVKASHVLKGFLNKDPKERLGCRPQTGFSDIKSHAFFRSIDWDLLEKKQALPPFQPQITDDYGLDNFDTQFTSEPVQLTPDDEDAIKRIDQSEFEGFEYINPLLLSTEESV
Summary of the method: as §1

ZAP-70 = ZAP-70 (Homo sapiens (Human), UniProt P43403)
Summary of the method: as §1

TAO1 = TAO1 (Homo sapiens (Human), UniProt Q7L7X3)
Summary of the method: as §1

MAP3K5 = MAP3K5 (Homo sapiens (Human), UniProt Q99683)
Summary of the method: as §1

EphA7 = EphA7 (Homo sapiens (Human), UniProt Q15375)
Sequence of EphA7 (Q15375 28-998): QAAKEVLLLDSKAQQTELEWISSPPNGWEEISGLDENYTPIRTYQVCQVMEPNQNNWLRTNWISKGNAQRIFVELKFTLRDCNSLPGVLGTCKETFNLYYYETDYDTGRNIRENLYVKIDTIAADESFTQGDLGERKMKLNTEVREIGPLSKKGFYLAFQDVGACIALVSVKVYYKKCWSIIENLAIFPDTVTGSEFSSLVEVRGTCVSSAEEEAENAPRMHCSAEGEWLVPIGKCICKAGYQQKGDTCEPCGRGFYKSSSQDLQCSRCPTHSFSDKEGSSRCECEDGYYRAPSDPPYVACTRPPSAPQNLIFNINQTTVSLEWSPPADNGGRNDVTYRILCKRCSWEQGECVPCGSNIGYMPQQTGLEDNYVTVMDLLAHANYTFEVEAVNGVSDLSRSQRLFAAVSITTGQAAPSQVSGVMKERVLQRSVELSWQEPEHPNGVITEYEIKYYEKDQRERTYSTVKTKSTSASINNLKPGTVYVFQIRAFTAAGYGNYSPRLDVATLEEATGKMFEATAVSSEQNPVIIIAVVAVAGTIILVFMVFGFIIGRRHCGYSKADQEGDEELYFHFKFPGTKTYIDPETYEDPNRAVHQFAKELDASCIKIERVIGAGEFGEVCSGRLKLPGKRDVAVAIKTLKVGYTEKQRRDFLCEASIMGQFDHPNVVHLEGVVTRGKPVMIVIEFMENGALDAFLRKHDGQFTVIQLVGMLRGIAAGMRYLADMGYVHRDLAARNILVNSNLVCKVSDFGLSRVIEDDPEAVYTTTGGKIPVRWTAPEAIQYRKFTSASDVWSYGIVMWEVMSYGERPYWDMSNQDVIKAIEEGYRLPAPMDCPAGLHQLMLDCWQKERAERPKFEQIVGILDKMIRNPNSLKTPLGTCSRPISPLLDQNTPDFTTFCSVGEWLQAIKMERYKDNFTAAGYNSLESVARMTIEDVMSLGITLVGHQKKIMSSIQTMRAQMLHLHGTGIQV
Summary of the method: as §1

ARK5 = ARK5 (Homo sapiens (Human), UniProt O60285)
Summary of the method: as §1

ITK = ITK (Homo sapiens (Human), UniProt Q08881)
Summary of the method: as §1

CDK1/cyclinB = CDK1/cyclinB (Homo sapiens (Human), UniProt P06493)
Sequence of CDK1/cyclinB (P06493 whole entry): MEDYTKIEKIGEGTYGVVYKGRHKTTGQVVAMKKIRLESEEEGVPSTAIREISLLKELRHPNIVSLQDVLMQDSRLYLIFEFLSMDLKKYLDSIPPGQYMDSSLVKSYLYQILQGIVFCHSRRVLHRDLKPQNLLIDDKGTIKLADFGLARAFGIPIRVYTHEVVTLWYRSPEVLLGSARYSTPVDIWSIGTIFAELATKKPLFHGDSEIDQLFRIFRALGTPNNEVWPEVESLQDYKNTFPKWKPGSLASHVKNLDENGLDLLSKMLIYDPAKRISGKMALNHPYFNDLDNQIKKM
Sequence of CDK1/cyclinB (P14635 whole entry partner): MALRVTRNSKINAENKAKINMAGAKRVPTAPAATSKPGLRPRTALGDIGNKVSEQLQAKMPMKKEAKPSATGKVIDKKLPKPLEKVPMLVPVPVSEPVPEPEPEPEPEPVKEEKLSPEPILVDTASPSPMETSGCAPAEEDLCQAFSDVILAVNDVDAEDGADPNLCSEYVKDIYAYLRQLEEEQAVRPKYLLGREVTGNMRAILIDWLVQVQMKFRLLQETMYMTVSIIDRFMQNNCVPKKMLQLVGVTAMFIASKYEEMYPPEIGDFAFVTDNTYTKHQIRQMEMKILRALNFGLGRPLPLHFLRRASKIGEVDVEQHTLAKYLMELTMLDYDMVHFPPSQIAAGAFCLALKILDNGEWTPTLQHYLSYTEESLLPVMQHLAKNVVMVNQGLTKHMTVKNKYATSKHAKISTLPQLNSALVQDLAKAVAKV
Summary of the method: as §1

CAMK2d = CAMK2d (Homo sapiens (Human), UniProt Q13557)
Sequence of CAMK2d (Q13557 whole entry): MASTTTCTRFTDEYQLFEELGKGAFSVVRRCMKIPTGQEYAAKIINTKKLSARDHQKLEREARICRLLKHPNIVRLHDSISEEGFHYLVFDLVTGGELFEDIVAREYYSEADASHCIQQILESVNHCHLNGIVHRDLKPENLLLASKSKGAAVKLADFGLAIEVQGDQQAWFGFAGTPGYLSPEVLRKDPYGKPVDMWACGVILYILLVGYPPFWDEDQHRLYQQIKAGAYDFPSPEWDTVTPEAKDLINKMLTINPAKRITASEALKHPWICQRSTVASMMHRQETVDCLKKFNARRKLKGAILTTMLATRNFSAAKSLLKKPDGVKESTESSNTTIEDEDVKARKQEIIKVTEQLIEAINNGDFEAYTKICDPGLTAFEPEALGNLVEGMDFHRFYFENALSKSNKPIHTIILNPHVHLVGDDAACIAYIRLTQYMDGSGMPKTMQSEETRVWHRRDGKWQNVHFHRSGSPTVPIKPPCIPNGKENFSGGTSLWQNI
Summary of the method: as §1

Rsk2 = Rsk2 (Homo sapiens (Human), UniProt P51812)
Sequence of Rsk2 (P51812 whole entry): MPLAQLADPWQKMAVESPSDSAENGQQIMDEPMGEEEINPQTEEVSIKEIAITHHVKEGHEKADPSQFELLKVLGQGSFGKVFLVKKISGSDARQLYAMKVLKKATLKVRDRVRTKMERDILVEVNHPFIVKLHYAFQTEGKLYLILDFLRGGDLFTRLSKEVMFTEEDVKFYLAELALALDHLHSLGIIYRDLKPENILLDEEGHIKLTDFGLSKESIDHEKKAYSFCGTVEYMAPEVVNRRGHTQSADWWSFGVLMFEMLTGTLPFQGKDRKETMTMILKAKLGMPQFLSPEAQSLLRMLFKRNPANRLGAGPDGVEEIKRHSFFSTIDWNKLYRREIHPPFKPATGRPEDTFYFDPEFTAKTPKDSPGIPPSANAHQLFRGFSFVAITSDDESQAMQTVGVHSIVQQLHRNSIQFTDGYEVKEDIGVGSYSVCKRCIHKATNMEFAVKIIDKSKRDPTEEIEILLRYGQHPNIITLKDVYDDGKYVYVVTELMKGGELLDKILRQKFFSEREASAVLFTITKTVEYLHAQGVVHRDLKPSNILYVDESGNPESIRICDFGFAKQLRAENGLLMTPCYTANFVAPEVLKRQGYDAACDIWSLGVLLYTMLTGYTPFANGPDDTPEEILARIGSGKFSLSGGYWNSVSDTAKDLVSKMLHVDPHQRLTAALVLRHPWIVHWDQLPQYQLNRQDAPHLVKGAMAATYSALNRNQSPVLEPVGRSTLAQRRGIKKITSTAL
Summary of the method: as §1

WNK3 = WNK3 (Homo sapiens (Human), UniProt Q9BYP7)
Summary of the method: as §1

AURKA = AURKA (Homo sapiens (Human), UniProt O14965)
Summary of the method: as §1

c-RAF = c-RAF (Homo sapiens (Human), UniProt P04049, Y340D/Y341D)
Summary of the method: as §1

PKCtheta = PKCtheta (Homo sapiens (Human), UniProt Q04759)
Summary of the method: as §1

IKKalpha = IKKalpha (Homo sapiens (Human), UniProt O15111)
Summary of the method: as §1

Haspin = Haspin (Homo sapiens (Human), UniProt Q8TF76)
Summary of the method: as §1

HIPK1 = HIPK1 (Homo sapiens (Human), UniProt Q86Z02)
Summary of the method: as §1

MST2 = MST2 (Homo sapiens (Human), UniProt Q13188)
Summary of the method: as §1

Plk1 = Plk1 (Homo sapiens (Human), UniProt P53350)
Summary of the method: as §1

KIT = KIT (Homo sapiens (Human), UniProt P10721)
Summary of the method: as §1

LKB1 = LKB1 (Homo sapiens (Human), UniProt Q15831)
Summary of the method: as §1

Rsk4 = Rsk4 (Homo sapiens (Human), UniProt Q9UK32)
Summary of the method: as §1

MARK1 = MARK1 (Homo sapiens (Human), UniProt Q9P0L2)
Summary of the method: as §1

PRK2 = PRK2 (Homo sapiens (Human), UniProt Q16513)
Summary of the method: as §1

EphA8 = EphA8 (Homo sapiens (Human), UniProt P29322)
Summary of the method: as §1

PKCbetaII = PKCbetaII (Homo sapiens (Human), UniProt P05771)
Summary of the method: as §1

## COCc1ccc2c(c1)C(NC(=O)Nc1c(C)c(-c3cnn(C)c3)nn1-c1ccccc1)COC2 (stereo not drawn) [Example 32, 1-(1′,4-dimethyl-1-phenyl-1H,1′H-[3,4′-bipyrazol]-5-yl)-3-(6-(methoxymethyl)isochroman-4-yl)urea]
SGK3
  Avg. POC: 134 POC
PKCiota
  Avg. POC: 71 POC
MINK
  Avg. POC: 124 POC
GSK3alpha
  Avg. POC: 112.5 POC
PTK6
  Avg. POC: 100 POC
GSK3beta
  Avg. POC: 84.5 POC
Rsk3
  Avg. POC: 92 POC
Rse
  Avg. POC: 105 POC
PrKX
  Avg. POC: 110 POC
PAK4
  Avg. POC: 98 POC
DYRK2
  Avg. POC: 97.5 POC
TrkB
  Avg. POC: −0.5 POC
Hck
  Avg. POC: 98 POC
PKCzeta
  Avg. POC: 115 POC
ZAP-70
  Avg. POC: 124 POC
TAO1
  Avg. POC: 100 POC
MAP3K5
  Avg. POC: 116 POC
EphA7
  Avg. POC: 100.5 POC
ARK5
  Avg. POC: 118.5 POC
ITK
  Avg. POC: 124 POC
CDK1/cyclinB
  Avg. POC: 104 POC
CAMK2d
  Avg. POC: 108.5 POC
Rsk2
  Avg. POC: 92.5 POC
WNK3
  Avg. POC: 103.5 POC
AURKA
  Avg. POC: 112.5 POC
c-RAF
  Avg. POC: 101.5 POC
PKCtheta
  Avg. POC: 117 POC
IKKalpha
  Avg. POC: 102 POC
Haspin
  Avg. POC: 94 POC
HIPK1
  Avg. POC: 115 POC
MST2
  Avg. POC: 111.5 POC
Plk1
  Avg. POC: 108 POC
KIT
  Avg. POC: 94.5 POC
LKB1
  Avg. POC: 100 POC
Rsk4
  Avg. POC: 95 POC
MARK1
  Avg. POC: 98.5 POC
PRK2
  Avg. POC: 99.5 POC
EphA8
  Avg. POC: 109 POC
PKCbetaII
  Avg. POC: 100.5 POC
